Laboratory results taken from patent US11178873B2, “Cyclic N-carboxamide compounds useful as herbicides” (FMC CORPORATION, priority 2015, dated 2021).

How the values were obtained:
Type in all cases: in vivo
[1] = test system: pigweed (Amaranthus retroflexus); test: Test A preemergence, pigweed; conditions: 0 to 100 scale, 0 no effect, 100 complete control
Summary of the method: (§1)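 Preemergence treatment was a directed soil spray; postemergence plants were 2 to 10 cm tall at the one- to two-leaf stage. Compounds were formulated in solvent with surfactant and grown in loam/sand in the greenhouse. Injury was scored visually against untreated controls after ~10 d, on a 0 (no effect) to 100 (complete control) scale.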

[2] = test system: wheat (Triticum aestivum); test: Test A preemergence, wheat; conditions: 1000 g ai/ha, 0 to 100 scale, 0 no effect, 100 complete control
Source text: (§2) Seeds of plant species selected from barnyardgrass (Echinochloa crus-galli), crabgrass, large (large crabgrass, Digitaria sanguinalis), kochia (Kochia scoparia), ragweed (common ragweed, Ambrosia elatior), morningglory (Ipomoea spp.), velvetleaf (Abutilon theophrasti), ryegrass, Italian (Italian ryegrass, Lolium multiflorum), foxtail, giant (giant foxtail, Setaria faberii), wheat (Triticum aestivum), corn (Zea mays), and pigweed (Amaranthus retroflexus), were planted into a blend of loam soil and sand and treated preemergence with a directed soil spray using test chemicals formulated in a non-phytotoxic solvent mixture which included a surfactant. At the same time, plants selected from these crop and weed species and also blackgrass (Alopecurus myosuroides), and galium (catchweed bedstraw, Galium aparine), were planted in pots containing the same blend of loam soil and sand and treated with postemergence applications of test chemicals formulated in the same manner. Plants ranged in height from 2 to 10 cm and were in the one- to two-leaf stage for the postemergence treatment. Treated plants and untreated controls were maintained in a greenhouse for approximately 10 d, after which time all treated plants were compared to untreated controls and visually evaluated for injury. Plant response ratings, summarized in Table A, are based on a 0 to 100 scale where 0 is no effect and 100 is complete control. A dash (-) response means no test result.

corn (Zea mays) [3] = test: Test A preemergence, corn; conditions: 1000 g ai/ha, 0 to 100 scale, 0 no effect, 100 complete control
Source text: as §2

[4] = test system: pigweed (Amaranthus retroflexus); test: Test A postemergence, pigweed; conditions: 0 to 100 scale, 0 no effect, 100 complete control
Summary of the method: as §1

[5] = test system: crabgrass, large (large crabgrass, Digitaria sanguinalis); test: Test A preemergence, crabgrass, large; conditions: 1000 g ai/ha, 0 to 100 scale, 0 no effect, 100 complete control
Source text: as §2

[6] = test system: foxtail, giant (giant foxtail, Setaria faberii); test: Test A preemergence, foxtail, giant; conditions: 0 to 100 scale, 0 no effect, 100 complete control
Summary of the method: as §1

corn (Zea mays) [7] = test: Test A postemergence, corn; conditions: 0 to 100 scale, 0 no effect, 100 complete control
Summary of the method: as §1

[8] = test system: crabgrass, large (large crabgrass, Digitaria sanguinalis); test: Test A postemergence, crabgrass, large; conditions: 1000 g ai/ha, 0 to 100 scale, 0 no effect, 100 complete control
Source text: as §2

[9] = test system: barnyardgrass (Echinochloa crus-galli); test: Test A postemergence, barnyardgrass; conditions: 0 to 100 scale, 0 no effect, 100 complete control
Summary of the method: as §1

[10] = test system: foxtail, giant (giant foxtail, Setaria faberii); test: Test A postemergence, foxtail, giant; conditions: 0 to 100 scale, 0 no effect, 100 complete control
Summary of the method: as §1

[11] = test system: morningglory (Ipomoea spp.); test: Test A preemergence, morningglory; conditions: 1000 g ai/ha, 0 to 100 scale, 0 no effect, 100 complete control
Source text: as §2

[12] = test system: velvetleaf (Abutilon theophrasti); test: Test A preemergence, velvetleaf; conditions: 1000 g ai/ha, 0 to 100 scale, 0 no effect, 100 complete control
Source text: as §2

[13] = test system: wheat (Triticum aestivum); test: Test A postemergence, wheat; conditions: 0 to 100 scale, 0 no effect, 100 complete control
Summary of the method: as §1

[14] = test system: velvetleaf (Abutilon theophrasti); test: Test A postemergence, velvetleaf; conditions: 1000 g ai/ha, 0 to 100 scale, 0 no effect, 100 complete control
Source text: as §2

[15] = test system: barnyardgrass (Echinochloa crus-galli); test: Test A preemergence, barnyardgrass; conditions: 0 to 100 scale, 0 no effect, 100 complete control
Summary of the method: as §1

[16] = test system: morningglory (Ipomoea spp.); test: Test A postemergence, morningglory; conditions: 1000 g ai/ha, 0 to 100 scale, 0 no effect, 100 complete control
Source text: as §2

[17] = test system: ryegrass, Italian (Italian ryegrass, Lolium multiflorum); test: Test A preemergence, ryegrass, Italian; conditions: 0 to 100 scale, 0 no effect, 100 complete control
Summary of the method: as §1

[18] = test system: ragweed (common ragweed, Ambrosia elatior); test: Test A preemergence, ragweed; conditions: 0 to 100 scale, 0 no effect, 100 complete control
Summary of the method: as §1

[19] = test system: ducksalad (Heteranthera limosa); test: Test B flooded paddy test, ducksalad; conditions: Flood, 250 g ai/ha; scale 0 to 100 (0 no effect, 100 complete control); 13 to 15 d
Summary of the method: (§3)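 Plants grown to the 2-leaf stage. At treatment, pots were flooded to 3 cm above the soil, compound was applied directly to the paddy water, and that depth was held throughout. After 13 to 15 d in the greenhouse, response was rated visually against controls on a 0 (no effect) to 100 (complete control) scale.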

[20] = test system: barnyardgrass (Echinochloa crus-galli); test: Test B flooded paddy test, barnyardgrass; conditions: Flood, 250 g ai/ha; scale 0 to 100 (0 no effect, 100 complete control); 13 to 15 d
Summary of the method: as §3

kochia (Kochia scoparia) [21] = test: Test A preemergence, kochia; conditions: 0 to 100 scale, 0 no effect, 100 complete control
Summary of the method: as §1

[22] = test system: ryegrass, Italian (Italian ryegrass, Lolium multiflorum); test: Test A postemergence, ryegrass, Italian; conditions: 0 to 100 scale, 0 no effect, 100 complete control
Summary of the method: as §1

[23] = test system: sedge, umbrella (small-flower umbrella sedge, Cyperus difformis); test: Test B flooded paddy test, sedge, umbrella; conditions: Flood, 250 g ai/ha; scale 0 to 100 (0 no effect, 100 complete control); 13 to 15 d
Summary of the method: as §3

kochia (Kochia scoparia) [24] = test: Test A postemergence, kochia; conditions: 0 to 100 scale, 0 no effect, 100 complete control
Summary of the method: as §1

rice (Oryza sativa) = test: Test B flooded paddy test, rice; conditions: Flood, 250 g ai/ha; scale 0 to 100 (0 no effect, 100 complete control); 13 to 15 d
Summary of the method: as §3

[25] = test system: ragweed (common ragweed, Ambrosia elatior); test: Test A postemergence, ragweed; conditions: 0 to 100 scale, 0 no effect, 100 complete control
Summary of the method: as §1

[26] = test system: blackgrass (Alopecurus myosuroides); test: Test A postemergence, blackgrass; conditions: 0 to 100 scale, 0 no effect, 100 complete control
Summary of the method: as §1

[27] = test system: galium (catchweed bedstraw, Galium aparine); test: Test A postemergence, galium; conditions: 0 to 100 scale, 0 no effect, 100 complete control
Summary of the method: as §1

SMILES: O=C1NCC(c2ccccc2)N1C(=O)Nc1ccccc1 (stereo not shown) [Compound 6]
- Plant response rating, Pigweed ([1]; 1000 g ai/ha): 0
- Plant response rating, Wheat [2]: 0
- Plant response rating, Corn (corn (Zea mays) [3]): 0
- Plant response rating, Pigweed ([4]; 1000 g ai/ha): 0
- Plant response rating, Crabgrass, Large [5]: 50
- Plant response rating, Foxtail, Giant ([6]; 1000 g ai/ha): 0
- Plant response rating, Corn (corn (Zea mays) [7]; 1000 g ai/ha): 0
- Plant response rating, Crabgrass, Large [8]: 0
- Plant response rating, Barnyardgrass ([9]; 1000 g ai/ha): 0
- Plant response rating, Foxtail, Giant ([10]; 1000 g ai/ha): 0
- Plant response rating, Morningglory [11]: 0
- Plant response rating, Velvetleaf [12]: 0
- Plant response rating, Wheat ([13]; 1000 g ai/ha): 0
- Plant response rating, Velvetleaf [14]: 0
- Plant response rating, Barnyardgrass ([15]; 1000 g ai/ha): 0
- Plant response rating, Morningglory [16]: 0

SMILES: O=C1CCC(c2ccc(Cl)cc2)N1C(=O)Nc1ccc(F)c(F)c1F (stereo not shown) [Compound 22]
- Plant response rating, Ryegrass, Italian ([17]; 31 g ai/ha): 0
- Plant response rating, Ryegrass, Italian ([17]; 125 g ai/ha): 0
- Plant response rating, Pigweed ([1]; 31 g ai/ha): 0
- Plant response rating, Pigweed ([1]; 125 g ai/ha): 0
- Plant response rating, Ragweed ([18]; 31 g ai/ha): 0
- Plant response rating, Ragweed ([18]; 125 g ai/ha): 0
- Plant response rating, Pigweed ([4]; 31 g ai/ha): 0
- Plant response rating, Pigweed ([4]; 125 g ai/ha): 0
- Plant response rating, Foxtail, Giant ([6]; 31 g ai/ha): 0
- Plant response rating, Foxtail, Giant ([6]; 125 g ai/ha): 0
- Plant response rating, Corn (corn (Zea mays) [7]; 31 g ai/ha): 0
- Plant response rating, Corn (corn (Zea mays) [7]; 125 g ai/ha): 0
- Plant response rating, Ducksalad [19]: 0
- Plant response rating, Barnyardgrass [20]: 0
- Plant response rating, Barnyardgrass ([9]; 31 g ai/ha): 0
- Plant response rating, Barnyardgrass ([9]; 125 g ai/ha): 0
- Plant response rating, Kochia (kochia (Kochia scoparia) [21]; 31 g ai/ha): 0
- Plant response rating, Kochia (kochia (Kochia scoparia) [21]; 125 g ai/ha): 0
- Plant response rating, Ryegrass, Italian ([22]; 31 g ai/ha): 0
- Plant response rating, Ryegrass, Italian ([22]; 125 g ai/ha): 0
- Plant response rating, Foxtail, Giant ([10]; 31 g ai/ha): 0
- Plant response rating, Foxtail, Giant ([10]; 125 g ai/ha): 0
- Plant response rating, Sedge, Umbrella [23]: 0
- Plant response rating, Wheat ([13]; 31 g ai/ha): 0
- Plant response rating, Wheat ([13]; 125 g ai/ha): 0
- Plant response rating, Kochia (kochia (Kochia scoparia) [24]; 31 g ai/ha): 0
- Plant response rating, Kochia (kochia (Kochia scoparia) [24]; 125 g ai/ha): 0
- Plant response rating, Rice (rice (Oryza sativa)): 0
- Plant response rating, Barnyardgrass ([15]; 31 g ai/ha): 0
- Plant response rating, Barnyardgrass ([15]; 125 g ai/ha): 0
- Plant response rating, Ragweed ([25]; 31 g ai/ha): 0
- Plant response rating, Ragweed ([25]; 125 g ai/ha): 0
- Plant response rating, Blackgrass ([26]; 31 g ai/ha): 0
- Plant response rating, Blackgrass ([26]; 125 g ai/ha): 0
- Plant response rating, Galium ([27]; 31 g ai/ha): 0
- Plant response rating, Galium ([27]; 125 g ai/ha): 0

SMILES: O=C1CCC(c2ccc(Cl)cc2)N1C(=O)Nc1ccccc1C(F)(F)F (stereo not shown) [Compound 23]
- Plant response rating, Ryegrass, Italian ([17]; 31 g ai/ha): 0
- Plant response rating, Ryegrass, Italian ([17]; 125 g ai/ha): 0
- Plant response rating, Pigweed ([1]; 31 g ai/ha): 0
- Plant response rating, Pigweed ([1]; 125 g ai/ha): 0
- Plant response rating, Ragweed ([18]; 31 g ai/ha): 0
- Plant response rating, Ragweed ([18]; 125 g ai/ha): 0
- Plant response rating, Pigweed ([4]; 31 g ai/ha): 0
- Plant response rating, Pigweed ([4]; 125 g ai/ha): 0
- Plant response rating, Foxtail, Giant ([6]; 31 g ai/ha): 0
- Plant response rating, Foxtail, Giant ([6]; 125 g ai/ha): 0
- Plant response rating, Corn (corn (Zea mays) [7]; 31 g ai/ha): 0
- Plant response rating, Corn (corn (Zea mays) [7]; 125 g ai/ha): 0
- Plant response rating, Ducksalad [19]: 0
- Plant response rating, Barnyardgrass [20]: 0
- Plant response rating, Barnyardgrass ([9]; 31 g ai/ha): 0
- Plant response rating, Barnyardgrass ([9]; 125 g ai/ha): 0
- Plant response rating, Kochia (kochia (Kochia scoparia) [21]; 31 g ai/ha): 0
- Plant response rating, Kochia (kochia (Kochia scoparia) [21]; 125 g ai/ha): 0
- Plant response rating, Ryegrass, Italian ([22]; 31 g ai/ha): 0
- Plant response rating, Ryegrass, Italian ([22]; 125 g ai/ha): 0
- Plant response rating, Foxtail, Giant ([10]; 31 g ai/ha): 0
- Plant response rating, Foxtail, Giant ([10]; 125 g ai/ha): 0
- Plant response rating, Sedge, Umbrella [23]: 0
- Plant response rating, Wheat ([13]; 31 g ai/ha): 0
- Plant response rating, Wheat ([13]; 125 g ai/ha): 0
- Plant response rating, Kochia (kochia (Kochia scoparia) [24]; 31 g ai/ha): 0
- Plant response rating, Kochia (kochia (Kochia scoparia) [24]; 125 g ai/ha): 0
- Plant response rating, Rice (rice (Oryza sativa)): 0
- Plant response rating, Barnyardgrass ([15]; 31 g ai/ha): 0
- Plant response rating, Barnyardgrass ([15]; 125 g ai/ha): 0
- Plant response rating, Ragweed ([25]; 31 g ai/ha): 0
- Plant response rating, Ragweed ([25]; 125 g ai/ha): 0
- Plant response rating, Blackgrass ([26]; 31 g ai/ha): 0
- Plant response rating, Blackgrass ([26]; 125 g ai/ha): 0
- Plant response rating, Galium ([27]; 31 g ai/ha): 0
- Plant response rating, Galium ([27]; 125 g ai/ha): 0
